Active and inactive are the calls of the source. No cut-off for these calls is given here.
Columns and labels:
Bacteria = experiment: Activity of compound tested against Gram negative bacteria at concentration of 100 ug/ml; Inactive; assay type: functional, organism-based
[1] = Activity of compound tested against Gram positive bacteria at concentration of 100 ug/ml; Inactive; assay type: functional

Structure (SMILES) | Activity (Bacteria) | Activity [1]
O=C(O)C1=C([C@H]2CCCO2)S[C@@H]2[C@H](C(=O)O)CC(=O)N12 | inactive | inactive
O=C(O)C1=C(C2CCCO2)S[C@@H]2[C@@H](C(=O)O)CC(=O)N12 (stereo partly drawn) | inactive | inactive
O=C(O)C1=C([C@H]2CCCO2)S[C@@H]2[C@@H](C(=O)NCc3ccccc3)CC(=O)N12 | inactive | inactive
CC1(C)S[C@@H]2[C@@H](C(=O)NCc3ccccc3)CC(=O)N2[C@H]1C(=O)O | inactive | inactive

Source: ChEMBL document CHEMBL1127142, “Novel conversion reaction of -lactam to -lactam. Synthesis of -lactam analogs of penam and penem antibiotics” (Bioorg Med Chem Lett, 1993)
